Test system: Fabry patients
Experiment: Long-term analysis of 12 patients that completed multiple studies: eGFR
Format: in vivo, human
Settings: 11 patients who received migalastat HCl 150 mg QOD for ≥17 months (mean exposure, 4-5 years)
Excerpt: In addition to the studies described above, other patients also received migalastat therapy in other studies such as dose-finding studies and/or long-term extension studies. […] 12 patients that completed multiple studies were further analyzed. Linear regression was used to calculate the annualized rate of change in […] from baseline.

Structure (SMILES): Cl.OC[C@H]1NC[C@H](O)[C@@H](O)[C@H]1O [migalastat HCl, migalastat hydrochloride]
- annualized mean change in eGFRCKD-EPI: 0.24 mL/min/1.72 m^2

Source: patent US20210379035A1, “Methods Of Treating Fabry Patients Having Renal Impairment” (Amicus Therapeutics, Inc., priority 2017, published 2021)
